Measurements reported in patent US20170081383A1, “MELANOCORTIN ANALOGS HAVING ENHANCED ACTIVITY AND TRANSPORT” (Tensive Controls Inc., priority 2012, published 2017).
“Also recorded” adds a separate entry of the source. Each block holds one compound with its values, some of them ahead of it. Positions of bridges follow the written chain, without caps; N, C: chain ends. Non-standard residues stand in square brackets, D forms with d. Residues, ends and D or L forms follow the SMILES beside them. No end group written: not given here. β2Val = β2-Val (beta2-Val), beta-amino acid; d2Nal = N[C@H](Cc1ccc2ccccc2c1)C(=O)O; β3hP = O=C(O)C[C@@H]1CCCN1; Nle = CCCC[C@H](N)C(=O)O

Assays:
[1] = tested on: urethane-anesthetized rats; assay: Cardiovascular activity of melanocortin peptides (MAP, heart rate, ECG); conditions: for Duration / Peak Heart Rate Response (BPM) / Peak MAP Response (Δ mm Hg): n = 5; for cardiovascular and behavioral side effects (in words): rats
Protocol: These studies were performed in urethane-anesthetized rats, since anesthesia is required for six-lead ECG monitoring. […] Initial selection of doses was guided by FDA exploratory IND studies with a recommendation for at least a 100-fold excess of the human dose.

[2] = tested on: LPS-induced cachexia in rats; assay: Lipopolysaccharide (LPS)-induced cachexia assay; assay type: in vivo, rat; conditions: for anti-cachectic activity after ICV (IVt) administration (in words): intracerebroventricular administration; for anti-cachectic activity after ICV (IVt) administration (in words) / blood-brain barrier transport (concluded from peripheral vs ICV activity): LPS model; for peripheral (IP) anti-cachexia activity, feeding (in words): peripheral / intraperitoneal administration after LPS
Protocol: The LPS model uses rats were maintained on a 12 h light/dark schedule with ad libitum access to food and water. Animals were handled daily for a minimum of three consecutive days to decrease non-specific handling stress. On the day of the experiment, individually housed animals received intraperitoneal injections of LPS dissolved in 0.5% low-endotoxin BSA, 0.9% saline or 0.5% BSA in 0.9% saline alone, and were returned to their home cage. The drug or control was administered (ICV, IP, or PO, depending on the type of study) 1-hour after LPS injection.
In the experiments described herein, a series of melanocortin receptor antagonist peptides were examined in a bacterial endotoxin inducing cachexia assay. For this assay, a rat is challenged with a single peripheral injection of lipopolysaccharide (LPS). LPS is a heat-stable lipo-polysaccharide, the major component of the outer membrane (capsule) of gram negative bacteria. In non-capsulated strains, it appears as a cell surface […]. LPS produces a strong immune response, including secretion of the proinflammatory cytokines Tumor Necrosis Factor α (TNFα) and interleukin-1 (IL-1). Proinflammatory cytokines are known factors that induce cachexia.
Rats are maintained on a 12-hour light/dark cycle. Animals are handled daily for a minimum of 5 consecutive days to acclimate them to the handling required for the experiment. […] On the day of the experiment, individually housed animals receive intraperitoneal (IP) injections of LPS dissolved in 0.5% low-endotoxin BSA, 0.9% saline or 0.5% BSA in 0.9% saline alone, and returned in their home cage. Melanocortin receptor antagonist peptides were administered (IP or by gavage, depending on the type of study) one hour after the LPS injection. The extent of cachexia is measured by the reduction in food intake, measured every two hours. The cachexia typically lasts only a single day. However, rats lose up to 5% of their body weight during a 12-hour light cycle, making up this loss plus food needed for normal growth during the 12-hour dark cycle. Thus, failure to eat appropriately during a single dark cycle is determinable from the animal's weight and any changes thereof.
A series of melanocortin receptor antagonist peptides were examined in a bacterial toxin inducing cachexia assay. In this assay, a rat was challenged with a single peripheral injection of lipopolysaccharide (LPS), a bacterial toxin that rapidly induces acute cachexia. The extent of cachexia was measured as a reduction in food intake, measured every two hours. The cachexia typically lasts only a single day.

Lewis sarcoma rat = assay: Reversal of cachexia-induced lethargy; assay type: in vivo; conditions: once-daily peripheral dosing for 48 hours (2 IP doses), irrespective of tumor load
Excerpt: In animals and humans, cachexia produces “lethargy,” i.e., the aversion to activity. Grossberg et al., J. Neurosci. 31(31): 11376-11386. […] This therapeutic effect is dependent on a stabilized melanocortin antagonist C-terminal extension. Video recordings characterized control animal behavior as neo-exploratory movement about the cage, i.e., repeated “sniffing” the air to presumably sample odors (e.g., neighboring animals), grooming, and intermittent bouts of eating and drinking. Caldecott-Hazard et al., J. Neurosci. 8(6): 1951-1961 (1988).
The animal typically remains in one position for an extended period of time (>1 minute). Occasionally it will change position, assuming the new position for an extended period. The rats show no grooming behavior, evident in the appearance of their coat and eyes.

Lewis sarcoma rat model = Lewis sarcoma rat model of cancer cachexia; assay type: in vivo
Protocol: This sarcoma is an aggressive form of cancer that produces significant cachexia. Popp et al., Cancer 49(6): 1212-1220 (1982). In the protocol, “treatment” began 8-days after tumor implantation, with a significant decrease in food intake from baseline. Body composition was determined by NMR prior to tumor implantation, and on the final day of the experiment after tumor resection, by ECHO MRI (NMR). Tumor implantation produces cachexia on or about the 6th day. Melanocortin drug therapy or saline was begun after day 8 and continued through day 12.
Prior to tumor implantation, both groups (drug or saline) had similar food intake (˜14 g/day). See FIGS. 2A and B. After tumor implantation, in saline-treated/tumor bearing controls, food intake decreased 35% to 9 g/day by day 8. FIGS. 3A-F. However, treatment with TCMCB01 reversed anorexia to a food intake similar to the control state.

[3] = TCMCB07 in rat plasma and cerebrospinal fluid after IV administration (HPLC fluorescence, mass spectrometry); assay type: in vivo
Protocol: Urethane-Anesthetized Rats Had Polyethylene (PE)-Tubing Cannulas Placed in their Femoral artery and vein. Each rat was then placed in a small animal stereotaxic apparatus, their head fixed in the lateral plane with ear bars, and their head placed in a 45-50° downward angle by placing their nose below an adjustable tooth bar. This position placed the animal's cistern magna at the highest vertical position of its body. The dural covering of the dorsal cistern magna was exposed.
A stainless steel cannula, with one end attached to PE-tubing, was placed in a stereotaxic tower cannula holder (open end down). The free end of the PE-tubing was attached to a 100 μL gas-tight Hamilton syringe with a 28-gauge needle. The cannula was adjusted to a position that approximated the middle of the exposed cistern magna, and the cannula lowered until it touched the dura mater. […] The dura has a degree of flexibility such that the cannula can depress it before it pierces it. After it was pierced, the dural rises to its original position, placing the cannula tip within the cistern magna space. The position of the cannula tip was again noted on the vertical axis of the tower. Typically, the cannula tip was 1.6-1.8 mm below the original dura-touch position. The cannula tip was then adjusted, if needed, to 1.8 mm below the dura, and the cannula sealed to the dura using skin glue. Samples of cisternal cerebrospinal (CSF) fluid were removed through cannula and PE-tubing by slowly drawing on the Hamilton syringe.
For the experimental procedure, baseline samples of blood and CSF were taken (“0” time points), followed by the IV administration of 750 nmol/kg TCMCB07. Samples of CSF (50 μL) and blood (1 mL) were collected at the following time points: 0, 5, 15, 30, and 90 minutes. […] Both CSF and plasma were stored at −80° C. until analyzed by (HPLC) with spectrofluoremetric monitoring at 230 nm excitation and […] emission (the fluorescence maximum for the Nal residue). […]

Compound: CCCC[C@H](NC(C)=O)C(=O)N[C@H]1CC(=O)NCCCC[C@@H](C(=O)O)NC(=O)[C@H](Cc2c[nH]c3ccccc23)NC(=O)[C@H](CCCN=C(N)N)NC(=O)[C@@H](Cc2ccccc2)NC(=O)[C@H](Cc2cnc[nH]2)NC1=O [PT-141, Ac-Nle-c[Asp-His-D-Phe-Arg-Trp-Lys]-COOH]
Duration ([1]; 250 nmol): 140 ± 53 min | Peak Heart Rate Response (BPM) ([1]; 250 nmol): 44 ± 6 BPM | Peak MAP Response (Δ mm Hg) ([1]; 250 nmol): 32 ± 6 mm Hg | lethality ([1]; 900 nmol/kg IV, FIG. 1C): lethal dose | MAP reached after dosing ([1]; 900 nmol/kg IV, baseline MAP 80 mmHg, then precipitously falling): 140 mmHg | heart rate course after dosing ([1]; 900 nmol/kg IV, baseline heart rate 312): progressively fell | ECG tracing (lead 2) finding ([1]; IV 600 nmol/kg, FIG. 1A-B): inverted P-wave

Compound: Ac-Nle-c[Asp-Pro-D-Nal(2′)-Arg-Trp-Lys]-β^3-Pro-β^2-Val-NH2 (Ac-[Nle]DP[d2Nal]RWK[β3hP][β2Val]-NH2; lactam 2-7) [TCMCB05]
food intake, 24 hours after LPS challenge ([2]; 0.2 mg/kg intraperitoneally, FIG. 8A): stimulated appetites | body weight (percent of pre-LPS baseline), 24 hours after LPS challenge ([2]; 0.2 mg/kg intraperitoneally, FIG. 8B): significantly gained weight | molar activity relative to TCMCB02 ([2]; ICV administration, LPS-induced cachexia): 10 fold | anti-cachectic activity after ICV (IVt) administration (in words) [2]: molar activity equivalent to TCMCB02 | peripheral (IP) anti-cachexia activity, feeding (in words) [2]: had IP anti-cachexia activity; also recorded: had peripheral anti-cachexia activity; also recorded: Only TCMCB07 produced a significant increase in feeding | behavior of cachectic (lethargic) rats (Lewis sarcoma rat): restored “normal” behavior to rats

blood-brain barrier transport (concluded from peripheral vs ICV activity) [2]: only has blood-brain barrier transport
Compound: CCCC[C@H](NC(C)=O)C(=O)N[C@H]1CC(=O)NCCCC[C@@H](C(=O)N2CCC[C@@H]2C(=O)N[C@@H](C(N)=O)C(C)C)NC(=O)[C@H](Cc2c[nH]c3ccccc23)NC(=O)[C@H](CCCNC(=N)N)NC(=O)[C@@H](Cc2ccc3ccccc3c2)NC(=O)[C@@H]2CCCN2C1=O [TCMCB02, Ac-Nle-c[Asp-Pro-D-Nal(2′)-Arg-Trp-Lys]-D-Pro-D-Val-NH2] (Ac-[Nle]DP[d2Nal]RWK[dP][dV]-NH2; lactam 2-7 (inferred))
cardiovascular and behavioral side effects (in words) [1]: no cardiovascular or dose-limiting behavioral side effects

Compound: Ac-Ser-Tyr-Nle-Glu-His-D-Phe-Arg-Trp-Gly-Lys-Pro-Val-NH2 [MT-I]
Duration ([1]; 250 nmol): 0 min | Peak Heart Rate Response (BPM) ([1]; 250 nmol): 0/0 BPM | Peak MAP Response (Δ mm Hg) ([1]; 250 nmol): 0/0 mm Hg

Compound: Ac-Nle-c[Asp-Pro-D-Nal(2′)-Arg-Trp-Lys]-D-Thr-D-Pro-D-Thr (Ac-[Nle]DP[d2Nal]RWK[dT][dP][dT]; lactam 2-7) [TCMCB01]
blood-brain barrier transport (concluded from peripheral vs ICV activity) [2]: insufficient blood brain barrier-transport; also recorded: no blood-brain barrier transport | anti-cachectic activity compared to the parent compound, PG932 ([2]; Lewis sarcoma rat model and LPS model): enhanced anti-cachectic activity | anti-cachectic activity after ICV (IVt) administration (in words) [2]: only produced an anti-cachexia effect when given by IVt administration | peripheral (IP) anti-cachexia activity, feeding (in words) [2]: did not have peripheral activity | Duration ([1]; 600 nmol): 0 min | Peak Heart Rate Response (BPM) ([1]; 600 nmol): 0/0 BPM | Peak MAP Response (Δ mm Hg) ([1]; 600 nmol): 0/0 mm Hg | cardiovascular and behavioral side effects (in words) [1]: no cardiovascular or dose-limiting behavioral side effects; also recorded: little cardiovascular activity | reversal of cachexia-anorexia (food intake) (Lewis sarcoma rat model; ICV, one time per day, 2 nmol, after day 8 through day 12): reversed the cachexia-anorexia of the tumor burden | dose producing the feeding effect relative to that used with previous synthetic melanocortin antagonists (Lewis sarcoma rat model; Lewis model): one tenth | body weight after tumor implantation (Lewis sarcoma rat model; drug treated group vs saline controls, FIG. 4): significantly greater than saline controls | tumor weight (Lewis sarcoma rat model; equivalent in saline-treated and drug-treated group (p=0.2), FIG. 5): ~40 g | anti-cachectic response compared with AGRP and SHU9119 (Lewis sarcoma rat model; food intake, Lewis sarcoma rats, FIG. 3): as potent as the natural melanocortin system inhibitor Agouti Related Protein (AGRP), and significantly more potent than SHU9119; also recorded: equivalent to AGRP | anti-cachectic effect greater than AGRP (Lewis sarcoma rat model; related study (not shown), Lewis model): ~20% | lean body mass (NMR after tumor excision) (Lewis sarcoma rat model; statistical significance only p=0.05, FIG. 6): increased lean body mass

presence in CSF by mass spectrometry of HPLC effluent ([3]; after IV 750 nmol/kg, no obvious Nal-fluorescence peak): confirmed the presence of TCMCB07 in CSF
Compound: CCCC[C@H](NC(C)=O)C(=O)N[C@H]1CC(=O)NCCCC[C@@H](C(=O)N[C@@H](C(=O)N2CCC[C@@H]2C(N)=O)C(C)C)NC(=O)[C@H](Cc2c[nH]c3ccccc23)NC(=O)[C@H](CCCN=C(N)N)NC(=O)[C@@H](Cc2ccc3ccccc3c2)NC(=O)[C@@H]2CCCN2C1=O [TCMCB07, Ac-Nle-c[Asp-Pro-D-Nal(2′)-Arg-Trp-Lys]-D-Val-D-Pro-NH2] (Ac-[Nle]DP[d2Nal]RWK[dV][dP]-NH2; lactam 2-7)
blood-brain barrier transport (concluded from peripheral vs ICV activity) [2]: both gastrointestinal and blood-brain barrier transport | proposed metabolite peak (retention time 12.9 minutes) in CSF ([3]; 5 and 30 minutes post IV 750 nmol/kg, peak height): peak height increases over time; also recorded: increased cerebrospinal fluid concentration | transport through the blood-brain-barrier (physical evidence) ([3]; IV 750 nmol/kg): direct physical evidence of TCMCB07 transport through the blood-brain-barrier

Compound: Ac-Nle-c[Asp-His-D-Nal(2′)-Arg-Trp-Lys]-NH2 [SHU9119]
Peak Heart Rate Response (BPM) ([1]; 250 nmol): 3 ± 14 BPM | Peak MAP Response (Δ mm Hg) ([1]; 250 nmol): 16 ± 5 mm Hg
